{
  "source": "patent US20220202852A1",
  "about": "“METHODS AND COMPOSITIONS OF AQUEOUS HYPOBROMOUS ACID FOR THE TREATMENT AND PREVENTION OF INFLAMMATORY CONDITIONS” (Briotech, Inc., priority 2020, published 2022)",
  "key": {"[1]": {"tested_on": "spores of Bacillus subtilis", "experiment": "Inactivation of resistant spores by HOBr/HOCl solutions", "assay_type": "cell-based", "settings": "20 seconds contact", "experimental": "Hypobromous acid (HOBr) was prepared by the exposure of a slight excess of one equivalent of aqueous bromide ion (as NaBr) to one equivalent of HOCl. This solution was prepared fresh for use in tests for inactivation of resistant microbial organisms.\nExposures as brief as 20 seconds to HOBr at approximately 25 ppm were sufficient to produce LRV of 6. In the same experimental protocol HOC1 at 230 ppm was required to produce 6 LRV in the same contact time. As soon as the HOCl concentration used was below 230 ppm, the LRVs fell into the 2-4 range."}, "E. coli": {"tested_on": "E. coli", "experiment": "Comparative antimicrobial efficacy of HOBr and HOCl solutions vs suspensions", "assay_type": "cell-based", "settings": "20 s exposure", "experimental": "(§1) FIGS. 3A-3C compare antimicrobial efficacy comparison of HOBr and HOCl solutions: E. coli, 20 s exposure (3A); S. aureus, 40 s exposure (3B); and A. niger, 40 s exposure (3C). HOBr=diagonal lines; HOCl=stippling.\n(§2) Preparations of HOCl stored at 22° C. for several weeks and freshly prepared HOBr solutions were compared in their antimicrobial properties versus suspensions of E. coli, S. aureus, and A. niger (see FIG. 3)."}, "S. aureus": {"tested_on": "S. aureus", "experiment": "Comparative antimicrobial efficacy of HOBr and HOCl solutions vs suspensions", "assay_type": "cell-based", "settings": "40 s exposure", "experimental": "as §1, §2"}, "[2]": {"tested_on": "human skin and mucous membranes, including conjunctiva", "experiment": "Safety of topically applied freshly prepared aqueous HOBr", "assay_type": "in vivo", "settings": "HOBr solution made from HOCl containing 200 ppm of Cl plus an equivalent of NaBr", "source_text": "A solution of HOBr was made by addition of an equivalent of NaBr to a solution of HOCl containing 200 ppm of Cl."}, "A. niger": {"tested_on": "A. niger", "experiment": "Comparative antimicrobial efficacy of HOBr and HOCl solutions vs suspensions", "assay_type": "cell-based", "settings": "all concentrations tested, 40 s exposure", "experimental": "as §1, §2"}, "[3]": {"settings": "lower concentrations (<115 ppm)"}},
  "data": [
    {"smiles": "OBr", "note": "[HOBr, Hypobromous acid]", "values": [
      {"measurement": "LRV, inactivation of Bacillus subtilis spores", "setting": "[1]; approximately 25 ppm", "value": 6},
      {"measurement": "inactivating E. coli, comparative efficacy", "setting": "E. coli; high concentrations (≥115 ppm)", "value": "equally effective"},
      {"measurement": "inactivating E. coli, comparative efficacy", "setting": "E. coli; [3]", "value": "markedly more effective than HOCl"},
      {"measurement": "inactivating S. aureus, comparative efficacy", "setting": "S. aureus; high concentrations (≥115 ppm)", "value": "equally effective"},
      {"measurement": "inactivating S. aureus, comparative efficacy", "setting": "S. aureus; [3]", "value": "markedly more effective than HOCl"},
      {"measurement": "adverse effects on epithelial surfaces after topical application", "setting": "[2]", "value": "without any indication of adverse effects"}
    ]},
    {"smiles": "OCl", "note": "[HOCl, hypochlorous acid]", "values": [
      {"measurement": "LRV, inactivation of Bacillus subtilis spores", "setting": "[1]; 230 ppm", "value": 6},
      {"measurement": "LRV, inactivation of Bacillus subtilis spores", "setting": "[1]; approximately 25 ppm", "value": "no detectable effect"},
      {"measurement": "LRV, inactivation of Bacillus subtilis spores", "setting": "[1]; concentration below 230 ppm", "value": "2-4"},
      {"measurement": "efficacy against A. niger, comparative", "setting": "A. niger", "value": "equally or more effective than HOBr"},
      {"measurement": "inactivating E. coli, comparative efficacy", "setting": "E. coli; high concentrations (≥115 ppm)", "value": "equally effective"},
      {"measurement": "inactivating S. aureus, comparative efficacy", "setting": "S. aureus; high concentrations (≥115 ppm)", "value": "equally effective"}
    ]}
  ]
}
